Test results reported in patent publication US12679878B2, “CRF2 receptor agonists and their use in therapy” (SANOFI, priority 2020, dated 2026).
Starred links: 1 amine or outer side, 2 acyl side, 3 side chain; linkers in the order of their positions; H or OH if unused. Non-standard residues stand in square brackets, D forms with d. Residues, ends and D or L forms follow the SMILES beside them. Groups on a side chain read outwards from the residue. No end group written: not given here. *: point of attachment. C18 diacid = O=C(O)CCCCCCCCCCCCCCCCC(=O)*; C16 diacid = O=C(O)CCCCCCCCCCCCCCC(=O)*; γGlu = O=C(O)[C@H](CCC(=O)[*:2])N[*:1]; AEEA = NCCOCCOCC(=O)O; Aib = CC(C)(N)C(=O)O

B1: peptide of SEQ ID NO: 187 (peptide)
peptide: IVLSLD[dV]PIKLK([γGlu-C16 diacid])QILLKQERQK[Aib]QREQAEKNKQILAQV-NH2
modifications: N-terminus assumed
SMILES: CC[C@H](C)[C@H](N)C(=O)N[C@H](C(=O)N[C@@H](CC(C)C)C(=O)N[C@@H](CO)C(=O)N[C@@H](CC(C)C)C(=O)N[C@@H](CC(=O)O)C(=O)N[C@@H](C(=O)N1CCC[C@H]1C(=O)N[C@H](C(=O)N[C@@H](CCCCN)C(=O)N[C@@H](CC(C)C)C(=O)N[C@@H](CCCCNC(=O)CC[C@H](NC(=O)CCCCCCCCCCCCCCC(=O)O)C(=O)O)C(=O)N[C@@H](CCC(N)=O)C(=O)N[C@H](C(=O)N[C@@H](CC(C)C)C(=O)N[C@@H](CC(C)C)C(=O)N[C@@H](CCCCN)C(=O)N[C@@H](CCC(N)=O)C(=O)N[C@@H](CCC(=O)O)C(=O)N[C@@H](CCCNC(=N)N)C(=O)N[C@@H](CCC(N)=O)C(=O)N[C@@H](CCCCN)C(=O)NC(C)(C)C(=O)N[C@@H](CCC(N)=O)C(=O)N[C@@H](CCCNC(=N)N)C(=O)N[C@@H](CCC(=O)O)C(=O)N[C@@H](CCC(N)=O)C(=O)N[C@@H](C)C(=O)N[C@@H](CCC(=O)O)C(=O)N[C@@H](CCCCN)C(=O)N[C@@H](CC(N)=O)C(=O)N[C@@H](CCCCN)C(=O)N[C@@H](CCC(N)=O)C(=O)N[C@H](C(=O)N[C@@H](CC(C)C)C(=O)N[C@@H](C)C(=O)N[C@@H](CCC(N)=O)C(=O)N[C@H](C(N)=O)C(C)C)[C@@H](C)CC)[C@@H](C)CC)[C@@H](C)CC)C(C)C)C(C)C
B2: peptide of SEQ ID NO: 189 (peptide)
peptide: IVLSLD[dV]PIKLK([γGlu-C16 diacid])QILLKQERQKK[Aib]RQKAEKNKQILAQV-NH2
modifications: N-terminus assumed
SMILES: CC[C@H](C)[C@H](N)C(=O)N[C@H](C(=O)N[C@@H](CC(C)C)C(=O)N[C@@H](CO)C(=O)N[C@@H](CC(C)C)C(=O)N[C@@H](CC(=O)O)C(=O)N[C@@H](C(=O)N1CCC[C@H]1C(=O)N[C@H](C(=O)N[C@@H](CCCCN)C(=O)N[C@@H](CC(C)C)C(=O)N[C@@H](CCCCNC(=O)CC[C@H](NC(=O)CCCCCCCCCCCCCCC(=O)O)C(=O)O)C(=O)N[C@@H](CCC(N)=O)C(=O)N[C@H](C(=O)N[C@@H](CC(C)C)C(=O)N[C@@H](CC(C)C)C(=O)N[C@@H](CCCCN)C(=O)N[C@@H](CCC(N)=O)C(=O)N[C@@H](CCC(=O)O)C(=O)N[C@@H](CCCNC(=N)N)C(=O)N[C@@H](CCC(N)=O)C(=O)N[C@@H](CCCCN)C(=O)N[C@@H](CCCCN)C(=O)NC(C)(C)C(=O)N[C@@H](CCCNC(=N)N)C(=O)N[C@@H](CCC(N)=O)C(=O)N[C@@H](CCCCN)C(=O)N[C@@H](C)C(=O)N[C@@H](CCC(=O)O)C(=O)N[C@@H](CCCCN)C(=O)N[C@@H](CC(N)=O)C(=O)N[C@@H](CCCCN)C(=O)N[C@@H](CCC(N)=O)C(=O)N[C@H](C(=O)N[C@@H](CC(C)C)C(=O)N[C@@H](C)C(=O)N[C@@H](CCC(N)=O)C(=O)N[C@H](C(N)=O)C(C)C)[C@@H](C)CC)[C@@H](C)CC)[C@@H](C)CC)C(C)C)C(C)C

What was measured:
[1] = Effect on blood pressure, telemetry (Example 17); assay type: in vivo; conditions: Sprague Dawley rats, 0.1 mg/kg SC
Procedure, shortened: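 Sprague Dawley rats with an aortic-catheter telemetry implant, recovered at least 2 weeks, given compound or vehicle at 0.1 mg/kg SC. HR, SBP, DBP and MBP recorded continuously for 48 h. Each 4-hour post-dose mean was compared with a 1-hour pre-dose basal mean.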

[2] = target: human corticotropin-releasing factor 2α (CRF2α receptor) (human), Q13324; assay: cell-based or functional assay
[3] = target: human corticotropin-releasing factor 2α receptor (CRF2α receptor) (human), Q13324; assay: cell-based or functional assay
Sequence of human corticotropin-releasing factor 2α receptor (CRF2α receptor) (human), Q13324 (Q13324 20-411): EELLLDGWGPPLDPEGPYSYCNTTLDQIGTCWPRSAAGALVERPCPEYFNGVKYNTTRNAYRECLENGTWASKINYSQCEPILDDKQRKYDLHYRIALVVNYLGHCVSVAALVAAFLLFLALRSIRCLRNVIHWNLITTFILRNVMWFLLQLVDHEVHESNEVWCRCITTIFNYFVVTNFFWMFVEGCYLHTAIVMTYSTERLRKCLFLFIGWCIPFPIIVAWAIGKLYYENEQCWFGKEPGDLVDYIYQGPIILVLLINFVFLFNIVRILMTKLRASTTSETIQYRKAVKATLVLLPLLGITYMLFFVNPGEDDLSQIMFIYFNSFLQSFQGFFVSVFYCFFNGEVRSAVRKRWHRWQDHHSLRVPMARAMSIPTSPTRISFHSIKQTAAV

Sequence of human corticotropin-releasing factor 2α (CRF2α receptor) (human), Q13324 (Q13324 20-411): as above

Molecule	Duration (h): last time point for which a significant effect on BP was still seen [1]	Effect on Systolic Pressure % change from baseline 8 h [1]	Effect on Systolic Pressure % change from baseline 24 h [1]	EC50 [nM], 0% HSA (cAMP, HTRF) [2]	CRF2 EC50 (cAMP, HTRF) [3]
CC[C@H](C)[C@H](N)C(=O)N[C@H](C(=O)N[C@@H](CC(C)C)C(=O)N[C@@H](CO)C(=O)N[C@@H](CC(C)C)C(=O)N[C@@H](CC(=O)O)C(=O)N[C@@H](C(=O)N1CCC[C@H]1C(=O)N[C@H](C(=O)NCC(=O)N[C@@H](CC(C)C)C(=O)N[C@@H](CCCCNC(=O)COCCOCCNC(=O)COCCOCCNC(=O)CC[C@H](NC(=O)CCCCCCCCCCCCCCCCC(=O)O)C(=O)O)C(=O)N[C@@H](CCC(N)=O)C(=O)N[C@H](C(=O)N[C@@H](CC(C)C)C(=O)N[C@@H](CC(C)C)C(=O)N[C@@H](CCCCN)C(=O)N[C@@H](CCC(N)=O)C(=O)N[C@@H](CCC(=O)O)C(=O)N[C@@H](CCCNC(=N)N)C(=O)N[C@@H](CCC(N)=O)C(=O)N[C@@H](CCCCN)C(=O)N[C@@H](CCCCN)C(=O)NC(C)(C)C(=O)N[C@@H](CCCNC(=N)N)C(=O)N[C@@H](CCC(=O)O)C(=O)N[C@@H](CCC(N)=O)C(=O)N[C@@H](C)C(=O)N[C@@H](CCC(=O)O)C(=O)N[C@@H](CCCCN)C(=O)N[C@@H](CC(N)=O)C(=O)N[C@@H](CCCCN)C(=O)N[C@@H](CCCNC(=N)N)C(=O)N[C@H](C(=O)N[C@@H](CC(C)C)C(=O)N[C@@H](CCC(=O)O)C(=O)N[C@@H](CCCNC(=N)N)C(=O)N[C@H](C(N)=O)C(C)C)[C@@H](C)CC)[C@@H](C)CC)[C@@H](C)CC)C(C)C)C(C)C [SEQ ID NO: 151, IVLSLDvPIGLK*QILLKQERQKKAibREQAEKNKRILERV-NH2] (H-IVLSLD[dV]PIGLK([AEEA-AEEA-γGlu-C18 diacid])QILLKQERQKK[Aib]REQAEKNKRILERV-NH2)	28 h	−12.3%	−3.8%	–	–
CC[C@H](C)[C@H](N)C(=O)N[C@H](C(=O)N[C@@H](CC(C)C)C(=O)N[C@@H](CO)C(=O)N[C@@H](CC(C)C)C(=O)N[C@@H](CC(=O)O)C(=O)N[C@H](C(=O)N1CCC[C@H]1C(=O)N[C@H](C(=O)N[C@@H](CCCCN)C(=O)N[C@@H](CC(C)C)C(=O)N[C@@H](CCCCNC(=O)COCCOCCNC(=O)COCCOCCNC(=O)CC[C@H](NC(=O)CCCCCCCCCCCCCCCCC(=O)O)C(=O)O)C(=O)N[C@@H](CCC(N)=O)C(=O)N[C@H](C(=O)N[C@@H](CC(C)C)C(=O)N[C@@H](CC(C)C)C(=O)N[C@@H](CCCCN)C(=O)N[C@@H](CCC(N)=O)C(=O)N[C@@H](CCC(=O)O)C(=O)N[C@@H](CCCNC(=N)N)C(=O)N[C@@H](CCC(N)=O)C(=O)N[C@@H](CCCCN)C(=O)N[C@@H](CCCCN)C(=O)NC(C)(C)C(=O)N[C@@H](CCCNC(=N)N)C(=O)N[C@@H](CCC(=O)O)C(=O)N[C@@H](CCC(N)=O)C(=O)N[C@@H](C)C(=O)N[C@@H](CCC(=O)O)C(=O)N[C@H](C(=O)N[C@@H](CC(N)=O)C(=O)N[C@@H](CCCCN)C(=O)N[C@@H](CCCNC(=N)N)C(=O)N[C@H](C(=O)N[C@@H](CC(C)C)C(=O)N[C@@H](CCC(=O)O)C(=O)N[C@@H](CCCNC(=N)N)C(=O)N[C@H](C(N)=O)C(C)C)[C@@H](C)CC)[C@@H](C)O)[C@@H](C)CC)[C@@H](C)CC)C(C)C)C(C)C [SEQ ID NO: 152, IVLSLDVPIKLK*QILLKQERQKKAibREQAETNKRILERV-NH2] (H-IVLSLDVPIKLK([AEEA-AEEA-γGlu-C18 diacid])QILLKQERQKK[Aib]REQAETNKRILERV-NH2)	20 h	−8.6%	−6.0%	–	–
B1	–	–	–	0.44 nM	0.44 nM
B2	–	–	–	3.49 nM	3.49 nM
